# In the supplement of paper PMC13380429:
# How the values were obtained:
# Conditions in all cases: 72 h
# Caco-2 [1] = test: cell viability relative to DMSO; higher = less toxic
# Calu-3 [2] = test: as above
# HepG2 [3] = test: as above
# U2OS [4] = test: as above
# Vero E6 [5] = test: as above
# Caco-2 [6] = test: relative viability EC50 (midpoint between 100% and the lowest measured viability); higher = less toxic
# Calu-3 [7] = test: as above
# HepG2 [8] = test: as above
# U2OS [9] = test: as above
# Vero E6 [10] = test: as above
# Caco-2 [11] = test: drug sensitivity score (DSS) for viability; higher = more toxic; extreme values may be limits of the assay
# Calu-3 [12] = test: as above
# HepG2 [13] = test: as above
# U2OS [14] = test: as above
# Vero E6 [15] = test: as above
Structure (SMILES),cell viability (Caco-2 [1]; 1 nM) [%],cell viability (Caco-2 [1]; 10 nM) [%],cell viability (Caco-2 [1]; 100 nM) [%],cell viability (Caco-2 [1]; 1000 nM) [%],cell viability (Caco-2 [1]; 10000 nM) [%],cell viability (Calu-3 [2]; 1 nM) [%],cell viability (Calu-3 [2]; 10 nM) [%],cell viability (Calu-3 [2]; 100 nM) [%],cell viability (Calu-3 [2]; 1000 nM) [%],cell viability (Calu-3 [2]; 10000 nM) [%],cell viability (HepG2 [3]; 1 nM) [%],cell viability (HepG2 [3]; 10 nM) [%],cell viability (HepG2 [3]; 100 nM) [%],cell viability (HepG2 [3]; 1000 nM) [%],cell viability (HepG2 [3]; 10000 nM) [%],cell viability (U2OS [4]; 1 nM) [%],cell viability (U2OS [4]; 10 nM) [%],cell viability (U2OS [4]; 100 nM) [%],cell viability (U2OS [4]; 1000 nM) [%],cell viability (U2OS [4]; 10000 nM) [%],cell viability (Vero E6 [5]; 1 nM) [%],cell viability (Vero E6 [5]; 10 nM) [%],cell viability (Vero E6 [5]; 100 nM) [%],cell viability (Vero E6 [5]; 1000 nM) [%],cell viability (Vero E6 [5]; 10000 nM) [%],relative viability EC50 (Caco-2 [6]) [µM],relative viability EC50 (Calu-3 [7]) [µM],relative viability EC50 (HepG2 [8]) [µM],relative viability EC50 (U2OS [9]) [µM],relative viability EC50 (Vero E6 [10]) [µM],drug sensitivity score (Caco-2 [11]),drug sensitivity score (Calu-3 [12]),drug sensitivity score (HepG2 [13]),drug sensitivity score (U2OS [14]),drug sensitivity score (Vero E6 [15])
Cc1ccccc1C(C(=O)NC1CCCCC1)N(C(=O)Cn1ccnc1C)c1cccc(F)c1 (stereo not given) [AGI-5198],98.4,97.5,87.9,103,90.6,93.6,95.7,85.4,90.3,87.4,103,99.3,112,88.6,103,96.6,103,102,106,93.2,100,100,98.9,99.2,101,> 10,> 10,> 10,> 10,> 10,0,0.8,0,0,0
N#C/C(=C\c1cccn1S(=O)(=O)c1cccc([N+](=O)[O-])c1)S(=O)(=O)c1ccc(F)cc1 [AMZ30],104,99,95.3,96.3,84.8,90.5,98,104,105,108,95.8,105,119,93.7,103,102,101,96.8,96.2,94.1,98.6,97.6,96.4,94.9,93.3,> 10,> 10,> 10,> 10,> 10,0.4,0,0,0,0
CCNC(=O)NS(=O)(=O)c1sc(CC(C)C)cc1-c1ccc(Cn2c(-c3ccccc3)nc(OC)c2C=O)cc1 [AVE-0991],108,97.5,99.1,90.1,97.7,107,104,110,93.8,97.9,102,99.6,101,108,102,104,99.7,103,100,102,99.9,98.3,97.7,93.3,96,> 10,> 10,> 10,> 10,> 10,0,0,0,0,0
C/C(=C\C(=O)Nc1ccccc1C(=O)O)c1ccc2ccccc2c1 [BIBR-1532],94.1,100,103,98,95.8,101,102,98.2,108,98,97.6,98,94.9,110,118,93.8,96.9,95.5,93.3,103,105,99.9,97.5,103,105,> 10,> 10,> 10,> 10,> 10,0,0,0,0,0
c1ccc2cc(C3=NCCN3)ncc2c1 [BU226],103,108,94.3,97.7,101,112,97.5,97,97.4,91.8,102,95.7,86.1,103,104,105,108,99.7,106,100,96.6,97.1,96.5,94.6,98.7,> 10,> 10,> 10,> 10,> 10,0,0,0,0,0
CC(ONC(=O)c1cc(C(F)(F)F)cc(C(F)(F)F)c1)C(=O)Nc1ccc(Cl)cc1 (stereo not given) [CCG-1423],99.9,97.9,91.4,97.4,88.6,96.4,89.5,85,95.1,98.7,108,99.4,94.9,96.8,89.2,100,98.6,105,99.6,101,101,99.4,99,105,99.2,> 10,> 10,> 10,> 10,> 10,0,0,0,0,0
c1ccc(Oc2cccnc2)cc1 [CI-844],96,97.6,90.4,93.1,93.2,104,101,89.9,94.1,106,102,103,94.3,97.4,106,100,103,94.9,97.2,96.1,101,103,100,99.8,98.7,> 10,> 10,> 10,> 10,> 10,0,0,0,0,0
